Results taken from patent US20050197350A1, “Novel quinoline, tetrahydroquinazoline, and pyrimidine derivatives and methods of treatment related to the use thereof” (TAISHO PHARMACEUTICAL CO., LTD., priority 2003, published 2005).

What follows are molecules tested on MCH receptors (assay: MCH receptor activity class (method not given)). Settings: not given.
Work on Cc1cc(N(C)C)nc(N[C@H]2CC[C@@H](NC(=O)c3ccc(OC(F)(F)F)cc3)CC2)n1 [Example 2569, N-(cis-4-{[4-(dimethylamino)-6-methylpyrimidin-2-yl]amino}cyclohexyl)-4-(trifluoromethoxy)benzamide] yielded a class of 3.

Same assay, conditions: MCH receptor activity class 1-3 (percent of control at 10^-7 M or IC50)
In the case of CN(C)c1ccnc(N[C@H]2CC[C@@H](CNC(=O)Nc3ccccc3Cl)CC2)n1 [compound 2405], the class is reported as 3 (Class 3 The value of percent of control at 10^−7 M was more than 60% or the value of IC50 was more than 200 nM.).
With CN(C)c1cc(N[C@H]2CC[C@@H](CNC(=O)Nc3c(Br)cc(F)cc3Br)CC2)nc2ccccc12 [compound 2398] the class was 3 (Class 3 The value of percent of control at 10^−7 M was more than 60% or the value of IC50 was more than 200 nM.).

Same assay, conditions: MCH receptor; class by percent of control at 10^-7 M or IC50
In the case of Cc1ccccc1NC(=S)N[C@H]1CC[C@@H](Nc2nc3c(c(N(C)C)n2)CCCC3)CC1 [compound 1960], the class is reported as 3 (Class 3 The value of percent of control at 10^−7 M was more than 60% or the value of IC50 was more than 200 nM.).
In the case of COc1ccc(Oc2ccc([N+](=O)[O-])cc2C(=O)N[C@H]2CC[C@@H](Nc3cc(N(C)C)c4ccccc4n3)CC2)cc1 [compound 108, N-(cis-4-{[4-(dimethylamino)quinolin-2-yl]amino}cyclohexyl)-2-(4-methoxyphenoxy)-5-nitrobenzamide], the class is reported as 1 (Class 1: The value of percent of control at 10^−7 M was less than 40% or the value of IC50 was less than 50 nM.).
In the case of Cc1cc(=O)oc2c(OCC(=O)N[C@H]3CC[C@@H](Nc4cc(N(C)C)c5ccccc5n4)CC3)cccc12 [compound 145], the class is reported as 3 (Class 3 The value of percent of control at 10^−7 M was more than 60% or the value of IC50 was more than 200 nM.).
COc1ccc(CNC(=S)N[C@H]2CC[C@@H](Nc3nc4c(c(N(C)C)n3)CCCC4)CC2)cc1 [compound 2018] was tested, and the class was 3 (Class 3 The value of percent of control at 10^−7 M was more than 60% or the value of IC50 was more than 200 nM.).
For Cc1cc(C(=O)N[C@H]2CC[C@@H](Nc3cc(N(C)C)c4ccccc4n3)CC2)ccc1F [compound 81, N-(cis-4-{[4-(dimethylamino)quinolin-2-yl]amino}cyclohexyl)-4-fluoro-3-methylbenzamide], the class was 1 (Class 1: The value of percent of control at 10^−7 M was less than 40% or the value of IC50 was less than 50 nM.).

Same assay, conditions: activity class 1-3: percent of control at 10^-7 M or IC50
For CN(C)c1nc(N[C@H]2CC[C@@H](NC(=O)Nc3c(Cl)cccc3C(F)(F)F)CC2)nc2c1CCCC2 [compound 1673], the class was 3 (Class 3 The value of percent of control at 10^−7 M was more than 60% or the value of IC50 was more than 200 nM.).
CN(C)c1nc(N[C@H]2CC[C@@H](NC(=O)Nc3c(F)cc(Br)cc3Br)CC2)nc2c1CCCC2 [compound 1671, N-(2,4-dibromo-6-fluorophenyl)-N′-(cis-4-{[4-(dimethylamino)-5,6,7,8-tetrahydroquinazolin-2-yl]amino}cyclohexyl)urea] was tested, and the class was 2 (Class 2: The value of percent of control at 10^−7 M was from 40% to 60% or the value of IC′50 was from 50 nM to 200 nM.).

Same assay, conditions: class 1-3 by percent of control at 10^-7 M or IC50
CN(C)c1ccnc(N[C@H]2CC[C@@H](CNC(=O)c3ccc(F)c(Cl)c3)CC2)n1 [compound 418] was tested, and the class was 3 (Class 3 The value of percent of control at 10^−7 M was more than 60% or the value of IC50 was more than 200 nM.).
Cc1ccc(C(=O)NC[C@H]2CC[C@@H](Nc3nccc(N(C)C)n3)CC2)cc1F [compound 419] was tested, and the class was 3 (Class 3 The value of percent of control at 10^−7 M was more than 60% or the value of IC50 was more than 200 nM.).

Same assay, conditions: class by percent of control at 10^-7 M or IC50
For CN(C)c1cc(N[C@H]2CC[C@@H](CNC(=O)CCc3ccccc3O)CC2)nc2ccccc12 [compound 794], the class was 3 (Class 3 The value of percent of control at 10^−7 M was more than 60% or the value of IC50 was more than 200 nM.).
With Cc1ccccc1C(=O)NC[C@H]1CC[C@@H](Nc2cc(N(C)C)c3ccccc3n2)CC1 [compound 223] the class was 3 (Class 3 The value of percent of control at 10^−7 M was more than 60% or the value of IC50 was more than 200 nM.).
In the case of COc1ccc(CCCCNC[C@H]2CC[C@@H](Nc3nc4c(c(N(C)C)n3)CCCC4)CC2)cc1 [compound 1499], the class is reported as 3 (Class 3 The value of percent of control at 10^−7 M was more than 60% or the value of IC50 was more than 200 nM.).
In the case of Cc1cc(CNC[C@H]2CC[C@@H](Nc3nc4c(c(N(C)C)n3)CCCC4)CC2)ccc1O [compound 1436], the class is reported as 2 (Class 2: The value of percent of control at 10^−7 M was from 40% to 60% or the value of IC′50 was from 50 nM to 200 nM.).
In the case of COc1cccc(OC)c1CN[C@H]1CC[C@@H](Nc2nc3c(c(N(C)C)n2)CCCC3)CC1 [compound 1326], the class is reported as 3 (Class 3 The value of percent of control at 10^−7 M was more than 60% or the value of IC50 was more than 200 nM.).
In the case of CCc1ccccc1NC(=S)N[C@H]1CC[C@@H](Nc2cc(N(C)C)c3ccccc3n2)CC1 [compound 2178], the class is reported as 3 (Class 3 The value of percent of control at 10^−7 M was more than 60% or the value of IC50 was more than 200 nM.).
CN(C)c1cc(NC2CCC(NCC3CCCCC3C(O)c3ccccc3)CC2)nc2ccccc12 (centres unmarked) [compound 1457] was tested, and the class was 3 (Class 3 The value of percent of control at 10^−7 M was more than 60% or the value of IC50 was more than 200 nM.).
In the case of CN(C)c1cc(N[C@H]2CC[C@@H](NC(=O)Nc3ccc(Br)cc3Br)CC2)nc2ccccc12 [compound 2139], the class is reported as 3 (Class 3 The value of percent of control at 10^−7 M was more than 60% or the value of IC50 was more than 200 nM.).
CN(C)c1ccnc(N[C@H]2CC[C@@H](CNC(=O)OCc3ccccc3)CC2)n1 [compound 400] was tested, and the class was 3 (Class 3 The value of percent of control at 10^−7 M was more than 60% or the value of IC50 was more than 200 nM.).
With COc1cc(CNC[C@H]2CC[C@@H](Nc3nc4c(c(N(C)C)n3)CCCC4)CC2)cc(OC)c1 [compound 1380] the class was 2 (Class 2: The value of percent of control at 10^−7 M was from 40% to 60% or the value of IC′50 was from 50 nM to 200 nM.).
In the case of Cc1cccc(Cl)c1NC(=O)N[C@H]1CC[C@@H](Nc2cc(N(C)C)c3ccccc3n2)CC1 [compound 2104], the class is reported as 3 (Class 3 The value of percent of control at 10^−7 M was more than 60% or the value of IC50 was more than 200 nM.).
Cc1ccc(CNC[C@H]2CC[C@@H](Nc3nc4c(c(N(C)C)n3)CCCC4)CC2)s1 [compound 1422] was tested, and the class was 3 (Class 3 The value of percent of control at 10^−7 M was more than 60% or the value of IC50 was more than 200 nM.).
Cc1cc(C(=O)N[C@H]2CC[C@@H](Nc3nccc(N(C)C)n3)CC2)ccc1[N+](=O)[O-] [compound 828, N-(cis-4-{[4-(dimethylamino)pyrimidin-2-yl]amino}cyclohexyl)-3-methyl-4-nitrobenzamide] was tested, and the class was 2 (Class 2: The value of percent of control at 10^−7 M was from 40% to 60% or the value of IC′50 was from 50 nM to 200 nM.).
In the case of Cc1c(NC(=O)N[C@H]2CC[C@@H](Nc3cc(N(C)C)c4ccccc4n3)CC2)cccc1[N+](=O)[O-] [compound 2111], the class is reported as 3 (Class 3 The value of percent of control at 10^−7 M was more than 60% or the value of IC50 was more than 200 nM.).
COc1ccc(CNC[C@H]2CC[C@@H](Nc3nccc(N(C)C)n3)CC2)c(OC)c1OC [compound 1253] was tested, and the class was 1 (Class 1: The value of percent of control at 10^−7 M was less than 40% or the value of IC50 was less than 50 nM.).
CCOC(=O)c1cccc(NC(=S)N[C@H]2CC[C@@H](Nc3nc4c(c(N(C)C)n3)CCCC4)CC2)c1 [Example 1773] was tested, and the class was 3 (Class 3 The value of percent of control at 10^−7 M was more than 60% or the value of IC50 was more than 200 nM.).
In the case of CCOC(=O)[C@H](Cc1ccccc1)NC(=O)N[C@H]1CC[C@@H](Nc2nccc(N(C)C)n2)CC1 (relative stereo) [compound 2250], the class is reported as 3 (Class 3 The value of percent of control at 10^−7 M was more than 60% or the value of IC50 was more than 200 nM.).
CC1=C(CC(=O)N[C@H]2CC[C@@H](Nc3cc(N(C)C)c4ccccc4n3)CC2)c2cc(F)ccc2/C1=C/c1ccc([S+](C)[O-])cc1 (relative stereo) [compound 743] was tested, and the class was 3 (Class 3 The value of percent of control at 10^−7 M was more than 60% or the value of IC50 was more than 200 nM.).
For CN(C)c1cc(N[C@H]2CC[C@@H](CNC(=O)c3ccc(-c4ccccc4)cc3)CC2)nc2ccccc12 [compound 219], the class was 3 (Class 3 The value of percent of control at 10^−7 M was more than 60% or the value of IC50 was more than 200 nM.).
CCCCC/C(=C\c1ccccc1)CN[C@H]1CC[C@@H](Nc2nc3c(c(N(C)C)n2)CCCC3)CC1 [compound 1353] was tested, and the class was 3 (Class 3 The value of percent of control at 10^−7 M was more than 60% or the value of IC50 was more than 200 nM.).

Same assay, conditions: class by percent of control at 10^−7 M or IC50
With Cc1cnc(N[C@H]2CC[C@@H](C(=O)N[C@@H](C)c3ccc([N+](=O)[O-])cc3)CC2)nc1N(C)C [compound 2781, cis-4-{[4-(dimethylamino)-5-methylpyrimidin-2-yl]amino}-N-[(1S)-1-(4-nitrophenyl)ethyl]cyclohexanecarboxamide] the class was 2 (Class 2: The value of percent of control at 10^−7 M was from 40% to 60% or the value of IC′50 was from 50 nM to 200 nM.).
For Cc1cnc(N[C@H]2CC[C@@H](NCc3ccc(F)c(F)c3)CC2)nc1N(C)C [compound 2997], the class was 3 (Class 3 The value of percent of control at 10^−7 M was more than 60% or the value of IC50 was more than 200 nM.).
In the case of Cc1cc(N(C)C)nc(NC[C@H]2CC[C@@H](NC(=O)c3ccc(C(F)(F)F)cc3)CC2)n1 [compound 2740], the class is reported as 3 (Class 3 The value of percent of control at 10^−7 M was more than 60% or the value of IC50 was more than 200 nM.).
In the case of COc1ccc(NC(=O)[C@H]2CC[C@@H](Nc3ncc(C)c(N(C)C)n3)CC2)cc1 [compound 2786], the class is reported as 3 (Class 3 The value of percent of control at 10^−7 M was more than 60% or the value of IC50 was more than 200 nM.).
Cc1cnc(N[C@H]2CC[C@@H](CNC(=O)c3ccc(F)c(Cl)c3)CC2)nc1N(C)C [compound 2704] was tested, and the class was 1 (Class 1: The value of percent of control at 10^−7 M was less than 40% or the value of IC50 was less than 50 nM.).
Cc1cc(N(C)C)nc(NC[C@H]2CC[C@@H](NC(=O)c3ccc4c(c3)OC(F)(F)O4)CC2)n1 [compound 2750] was tested, and the class was 3 (Class 3 The value of percent of control at 10^−7 M was more than 60% or the value of IC50 was more than 200 nM.).
